The structures appear in SMILES notation. Where two headings read alike, the source gives them in different places. Marks after values point to notes of the source that are not given here.

Data set [1] concerns breast cancer cell MCF-7. Nature of the data set: Tumor cell proliferation inhibitory activity test in vitro (MTT). It is filed as cell-based. The following applies: Homo sapiens. Summed up:
(§1)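 Cells seeded at 1000-10000 per well overnight, then exposed to test concentrations for 72 hours at 37° C, 5% CO2 in DMEM+10% FBS.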

Data set [2] concerns ovarian cancer cell A2780s. The description is as above. It is filed as cell-based. The following applies: Homo sapiens, sensitive cells, 72 hours. Summed up:
as §1

In data set [3] the test system is drug-resistant ovarian cancer cell A2780/T. Described as above. The data set is classed as cell-based. To be noted: Homo sapiens, drug-resistant cells, 72 hours. Summed up:
as §1

Data set [4] has as its system prostate cancer PC-3. The description is as above. It is filed as cell-based, human. The following applies: Homo sapiens, 72 hours, read-out: IC50 of compounds for tumor cells, Activity, PC-3. Summed up: as §1
Data set [5] relates to hepatocellular carcinoma cell HEPG2. The description is as above. The following applies: Homo sapiens, HepG2, 72 hours, read-out: IC50 of compounds for tumor cells, Activity, HEPG2. It is filed as cell-based, human. Put shortly:
as §1

The test system of data set [6] is melanoma A375. Described as above. The data set is classed as cell-based, human. To be noted: Homo sapiens, A-375, 72 hours, read-out: IC50 of compounds for tumor cells, Activity, A375. Summed up:
as §1

For data set [7], the system named is non-small cell lung cancer cell line NCI-H460. The description is as above. It is filed as cell-based, human. The following applies: Homo sapiens, NCI-H460, 72 hours, read-out: IC50 of compounds for tumor cells, Activity, H460. Summed up:
as §1

Data set [8] relates to colon carcinoma cell HCT116. The description is as above. It is filed as cell-based, human. The following applies: Homo sapiens, HCT-116, 72 hours, read-out: IC50 of compounds for tumor cells, Activity, HCT116. Summed up: as §1
The subject of data set [9] is plural tumor cells. The following applies: cited from earlier work.
Data set [10] concerns HCT-8/V. The data set can be described thus: Tumor cell proliferation inhibitory activity test in vitro (MTT). It is filed as cell-based. To be noted: Homo sapiens, drug-resistant cells, 72 hours.
Data set [11] has as its system colon carcinoma cell HCT-8. The data set is described as above. The data set is classed as cell-based. To be noted: Homo sapiens, sensitive cells, 72 hours. Put shortly: as §1
Data set [12] relates to doxorubicin-resistant breast cancer cell MCF-7/ADR. The description is as above. The data set is classed as cell-based. To be noted: Homo sapiens, NCI/ADR-RES, drug-resistant cells, 72 hours. Summed up:
as §1

For data set [13], the system named is microtubule in hepatocellular carcinoma cell HepG2. Nature of the data set: Depolymerization on microtubule by immunofluorescence technique. It is filed as cell-based, human. The following applies: HepG2, 16 h, three concentrations. The text has this: Place round coverslips into 6-well plate, plate hepatocellular carcinoma cell HepG2 in the 6-well plate and make the cells adhere to the round coverslips.

Data set [14] deals with human umbilical vein endothelial cells (HUVECs). Nature of the data set: Angiogenesis test on HUVECs. It is filed as cell-based. The following applies: Matrigel, 8 h treatment.
Description: (§4) Obtain neonate umbilical cords from clinical sources after being approved by relevant authorities, put them into sterile PBS solution, provide ice bags at the external to keep them under low temperature, and return to the clean bench to operate. Insert a blunt needle into the human umbilical vein and wash with sterile PBS solution for multiple times until cleaning up the tainted blood. Clamp the lower end of the cord with surgical clamps, add collagenase with 1 mg/mL concentration (purchased from Roche) for digestion for 15 to 20 minutes at room temperature and shake the cord up and down at intervals. After digestion, open the surgical clamp at the lower end, let the digestive solution flow into a 50 mL centrifuge tube and wash the cord for 2-3 times with sterile PBS solution. Centrifuge the collected solution for 3 minutes at 1500 rpm. Discard the supernatant, resuspend cells with EBM-2 medium (purchased from lonza) containing various growth factors and incubate them in an incubator at constant temperature of 37° C. with 5% CO2 concentration.
Place Matrigel (purchased from Becton Dickinson (BD)) at 4° C. and make it in liquid state; precool the pipette tip, 96-well plate and EP tube to be used in the test.
Add Matrigel into the 96-well plate at 50 μL/well and incubate it in an incubator at 37° C. with CO2 concentration for 45 min to make it solidify. […]
Data set [15] shares this test system. The data set can be described thus: Wound healing test on HUVECs. The following applies: 24 h of cells migration. The data set is classed as cell-based.
Description: as §4
Collect HUVECs between the 3rd to 7th subculture generations and plate them in the 6-well plate. When the cells were about to form a confluent monolayer of cells, change the medium into a serum-free medium to starve the cells for 6 h. […]
The subject of data set [16] is mouse colon carcinoma C26. The data set can be described thus: Pharmacodynamics in tumor-bearing mice, colon carcinoma C26 model.
Description: Collect tumor cells under aseptic conditions, adjust cell density to 5×10^7 cells/mL with sterilized physiological saline, subcutaneously inoculate 0.2 mL into armpit and back of nude mice, remove the tumor when it grew to 1 cm diameter under aseptic conditions, slice it into 1 mm×1 mm tumor blocks and evenly and subcutaneously inoculate it into armpit and back of nude mice for subculture. Remove the tumor under aseptic conditions after 2 subcultures and when it grew to 1 cm diameter, slice it into 1 mm×1 mm tumor blocks and evenly and subcutaneously inoculate it into armpit and back of nude mice. Conduct random grouping of animals after 7 days when the tumor grew to 100-300 mm^3 and perform tail intravenous injection (i.v.) once per two days, with dosages and administration methods shown in Table 3 and Table 4.
(1) Tumor volume (TV), relative tumor volume (RTV) and relative tumor proliferation rate: measure long diameter and short diameter of tumor in every two days using a vernier caliper or ruler with 1/50 mm precision and dynamically observe anti-tumor effects of tested drugs.
Formula for calculating tumor volume (TV) is: TV (mm3)=a×b^2×π/6; wherein a and b stand for long diameter and short diameter respectively.
Calculate relative tumor volume (RTV) based on the measured results with formula: RTV=Vt/V0, wherein V0 stands for the measured TV of each group at the time of being grouped for administration (i.e. d0) and Vt stands for the TV value of each group for every measurement.
The indicator used to evaluate anti-tumor activity is the relative tumor proliferation rate T/C (%), with the calculating formula as following:
TRTV: relative tumor volume of treated group; CRTV: relative tumor volume of negative control group.
Kill the animal at the end of treatment, dissect and remove the tumor, weigh the tumor and take a picture. The tumor inhibition rate (%) is calculated as the following formula:
In data set [17] the test system is human ovarian cancer cell A2780S. Nature of the data set: Pharmacodynamics in tumor-bearing nude mice, A2780S model. It is filed as in vivo, mouse. The text has this:
(§2) Test condition: animal house of SPF level, use permit No. of experiment animals: SYXK (J) 2015-0023
(§3) Weigh the mouse and measure length and width of tumor using a vernier caliper in every two days, perform cervical dislocation for the nude mice after 20 days of drug administration, remove the tumor tissues, weigh and take a picture. Calculate tumor inhibition rate (%) eventually to evaluate anti-tumor effects.

For data set [18], the system named is taxol-resistant ovarian cancer cell A2780/Taxol. Nature of the data set: Pharmacodynamics in tumor-bearing nude mice, A2780/Taxol model. It is filed as in vivo, mouse.
Source text: as §2, §3

Data set [19] has as its system tumor. To be noted: cited from earlier work.
Where [20] appears, read: MCF7, 72 hours, read-out: IC50 of compounds for tumor cells, Activity, MCF-7.
The mark [21] stands for this setting: MCF7, sensitive cells, 72 hours, read-out: IC50/nM MCF-7.
[22] abbreviates: subcutaneously transplanted mouse colon carcinoma C26, 5 mg/kg i.v. once/two days.
The mark [23] stands for this setting: A2780s model, 30 mg/kg intraperitoneal once/seven days.
[24] abbreviates: cells marked (μM), read-out: IC50 HCT-8/V.
Setting [25] is: cells marked (μM), read-out: IC50 MCF-7/ADR.
The mark [26] stands for this setting: A2780/T model, 30 mg/kg intraperitoneal once/seven days.

For `COc1ccc(N(C)c2cc(=O)oc3ccccc23)cc1OC(=O)C1CCCC1` [COUM-73, 4-(N-methyl-N-(4-methoxy-3-(cyclopentyl-carbonyloxy)benzene)-amino) Coumarin], the IC50 in data set [1] (setting [20]) was 0.01 to 10 nM; in [2], 1.68 ± 0.075 nM; in data set [3] it was 3.34 ± 0.101 nM; in data set [4], 0.01 to 10 nM; in data set [5], 0.01 to 10 nM; in data set [6], 0.01 to 10 nM. Further, the IC50 in data set [7] and in data set [8] was 0.01 to 10 nM each time.
Regarding `COc1ccc(N(C)c2cc(=O)oc3ccccc23)cc1NC(=O)CCC(=O)O` [COUM-98, 4-(N-methyl-N-(4-methoxy-3-(1-carboxylic acid-propanecarbonylamino-)phenyl)-amino) Coumarin], the IC50 in data set [1] (setting [20]), in [4], in data set [5], in data set [6], in [7] and in data set [8] was 100 to 5000 nM in each case.
Take `COc1ccc(N(C)c2nc(C)nc3ccccc23)cc1` [MPC-6827]: the IC50 is 1 to 10 nM in data set [9]; 3.75 ± 0.131 nM in data set [10] (read-out: IC50/nM HCT-8/V); 3.12 ± 0.066 nM in data set [11]; 0.01 to 10 nM in [1] (setting [20]); 0.581 ± 0.004 nM in data set [1] (setting [21]); 0.699 ± 0.053 nM in data set [12] (read-out: IC50/nM MCF-7/ADR). Also, the IC50 in data set [2] was 3.16 ± 0.034 nM; in data set [3], 4.11 ± 0.062 nM; in data set [4], 0.01 to 10 nM; in data set [5] it was 0.01 to 10 nM; in data set [6], 0.01 to 10 nM; in data set [7] it was 0.01 to 10 nM. Further, the IC50 in [8] was 0.01 to 10 nM. For the same molecule, the “Inhibition of polymerization of microtubule (immunofluorescence observation)” value in data set [13] is “fails to form orderly filamentous structures due to inhibited polymerization”. Besides, the “Inhibition of angiogenesis of HUVECs” value in data set [14] is “inhibit angiogenesis of HUVECs in a dose-dependent manner”. Further, the “Inhibition of migration of HUVECs” value in [15] is reported as “inhibit migration of HUVECs in a dose-dependent manner”. In addition, the “Mouse weight during the treatment” value in [16] (colon carcinoma C26 model, 5 mg/kg i.v. once/two days) is “significant drops in weight and even died”. In data set [16] (setting [22]), the “Average tumor weight” value turned out to be 0.525 g. The “Tumor inhibition rate (%)” value in data set [16] (setting [22]) is listed as 78.66%.
With `CC(=O)O[C@H]1C(=O)[C@@]2(C)[C@H]([C@H](OC(=O)c3ccccc3)[C@]3(O)C[C@H](OC(=O)[C@H](O)[C@@H](NC(=O)c4ccccc4)c4ccccc4)C(C)=C1C3(C)C)[C@]1(OC(C)=O)CO[C@@H]1C[C@@H]2O` [Taxol], in [17] (setting [23]), the Death rate is on record as 0/6, the “Mouse weight (g) Final” value was 18.2 ± 0.4 g, the “Mouse weight (g) Initial” value is given as 21.0 ± 0.7 g and the “T/C (%)” value came to 13.1%. Also, in data set [17] (setting [23]), the “Tumor volume (mm^3) Final” value is given as 184.8 ± 26.6 ^c mm^3, the “Tumor volume (mm^3) Initial” value worked out at 138.1 ± 25.6 mm^3, the “Tumor weight (g) X ± SD” value was 0.28 ± 0.07 ^c g and the “Tumor weight Inhibition rate %” value stood at 82.9%. For the same molecule, the “Weight drop in average” value in [17] (mouse, in vivo) is listed as “about 2 g”. Further, in data set [10] (setting [24]), the IC50 came to 189 ± 52 nM. Besides, the IC50 in data set [11] amounted to 37 ± 23.9 nM. The IC50 in [1] (setting [21]) turned out to be 32.3 ± 19.5 nM. Besides, in data set [12] (setting [25]), the IC50 amounted to 9150 nM. Also, the IC50 in data set [2] is 58.1 ± 24.1 nM. This molecule displayed an IC50 in data set [3] of 8120 ± 185 nM. Besides, in data set [18] (setting [26]), the Death rate is on record as 0/6, the “T/C (%)” value stood at 75.4%, the “Tumor volume (mm^3) Final” value is listed as 936.4 ± 347.9^ mm^3 and the “Tumor volume (mm^3) Initial” value turned out to be 155.6 ± 20.6 mm^3. In data set [18] (setting [26]), the “Tumor weight (g) X ± SD” value is on record as 0.79 ± 0.41 ^ g and the “Tumor weight Inhibition rate %” value was determined as 37.7%. For the same molecule, in data set [18] (mouse, in vivo, ip, 30 mg/kg), the “Mouse weight (g) Final” value stood at 19.4 ± 1.0 g and the “Mouse weight (g) Initial” value is reported as 20.3 ± 0.8 g.
For `CC[C@]1(O)C[C@H]2CN(CCc3c([nH]c4ccccc34)[C@@](C(=O)OC)(c3cc4c(cc3OC)N(C=O)[C@H]3[C@@](O)(C(=O)OC)[C@H](OC(C)=O)[C@]5(CC)C=CCN6CC[C@]43[C@@H]65)C2)C1` [Vincristin, vincristin], the IC50 came out at 23 ± 4 nM in [10] (setting [24]); 14.8 ± 3.15 nM in [11]; 54.7 nM in data set [1] (setting [21]); 5850 ± 1390 nM in data set [12] (setting [25]); 22.4 ± 2.68 nM in data set [2]; 476 ± 76.1 nM in data set [3].
Take `COc1ccc2c(-c3ccc(OC)c(O)c3)cc(=O)oc2c1` [compound C]: the “IC50 value, anti-tumor activity” value in data set [19] was “dozens of nanomolar”.

These data come from patent US10544134B2, “4-substituted coumarin derivatives and preparation methods and uses thereof” (SI CHUAN UNIVERSITY, priority 2015, dated 2020).
